Experimental data as given in the NIST ThermoML archive (doi:10.1021/acs.jced.7b00221).
± gives the expanded uncertainty stated by the source.

Experiment: xn = mol fraction of the nth substance listed
Conditions: 100 kPa, Liquid, Cone and plate viscometry

## CCCCCCCCCCCCCC[P+](CCCCCC)(CCCCCC)CCCCCC.N#Cc1ccc[n-]1 [trihexyl(tetradecyl)phosphonium 2-cyanopyrrolide] + CCCCCCn1cc[n+](C)c1C.O=S(=O)([N-]S(=O)(=O)C(F)(F)F)C(F)(F)F
278.15 K, x1 = 0.1
  viscosity: 701 ± 91 mPa·s
278.15 K, x1 = 0.201
  viscosity: 895 ± 120 mPa·s
278.15 K, x1 = 0.3
  viscosity: 1056 ± 140 mPa·s
278.15 K, x1 = 0.399
  viscosity: 1356 ± 180 mPa·s
278.15 K, x1 = 0.5
  viscosity: 1594 ± 220 mPa·s
278.15 K, x1 = 0.601
  viscosity: 1658 ± 230 mPa·s
278.15 K, x1 = 0.699
  viscosity: 1745 ± 240 mPa·s
278.15 K, x1 = 0.799
  viscosity: 1868 ± 260 mPa·s
278.15 K, x1 = 0.902
  viscosity: 1930 ± 270 mPa·s
278.15 K, x1 = 1
  viscosity: 1764 ± 240 mPa·s
283.15 K, x1 = 0.1
  viscosity: 472 ± 60 mPa·s
283.15 K, x1 = 0.201
  viscosity: 598 ± 78 mPa·s
283.15 K, x1 = 0.3
  viscosity: 699 ± 91 mPa·s
283.15 K, x1 = 0.399
  viscosity: 897 ± 120 mPa·s
283.15 K, x1 = 0.5
  viscosity: 1048 ± 140 mPa·s
283.15 K, x1 = 0.601
  viscosity: 1093 ± 150 mPa·s
283.15 K, x1 = 0.699
  viscosity: 1141 ± 150 mPa·s
283.15 K, x1 = 0.799
  viscosity: 1221 ± 160 mPa·s
283.15 K, x1 = 0.902
  viscosity: 1279 ± 170 mPa·s
283.15 K, x1 = 1
  viscosity: 1179 ± 160 mPa·s
288.15 K, x1 = 0.1
  viscosity: 328 ± 41 mPa·s
288.15 K, x1 = 0.201
  viscosity: 411 ± 52 mPa·s
288.15 K, x1 = 0.3
  viscosity: 474 ± 61 mPa·s
288.15 K, x1 = 0.399
  viscosity: 607 ± 79 mPa·s
288.15 K, x1 = 0.5
  viscosity: 705 ± 92 mPa·s
288.15 K, x1 = 0.601
  viscosity: 734 ± 96 mPa·s
288.15 K, x1 = 0.699
  viscosity: 764 ± 100 mPa·s
288.15 K, x1 = 0.799
  viscosity: 820 ± 110 mPa·s
288.15 K, x1 = 0.902
  viscosity: 867 ± 110 mPa·s
288.15 K, x1 = 1
  viscosity: 804 ± 110 mPa·s
293.15 K, x1 = 0.1
  viscosity: 234 ± 29 mPa·s
293.15 K, x1 = 0.201
  viscosity: 290 ± 36 mPa·s
293.15 K, x1 = 0.3
  viscosity: 332 ± 42 mPa·s
293.15 K, x1 = 0.399
  viscosity: 422 ± 54 mPa·s
293.15 K, x1 = 0.5
  viscosity: 488 ± 63 mPa·s
293.15 K, x1 = 0.601
  viscosity: 507 ± 65 mPa·s
293.15 K, x1 = 0.699
  viscosity: 527 ± 68 mPa·s
293.15 K, x1 = 0.799
  viscosity: 566 ± 73 mPa·s
293.15 K, x1 = 0.902
  viscosity: 602 ± 78 mPa·s
293.15 K, x1 = 1
  viscosity: 563 ± 73 mPa·s
298.15 K, x1 = 0.1
  viscosity: 173 ± 21 mPa·s
298.15 K, x1 = 0.201
  viscosity: 212 ± 26 mPa·s
298.15 K, x1 = 0.3
  viscosity: 240 ± 30 mPa·s
298.15 K, x1 = 0.399
  viscosity: 304 ± 38 mPa·s
298.15 K, x1 = 0.5
  viscosity: 350 ± 44 mPa·s
298.15 K, x1 = 0.601
  viscosity: 361 ± 46 mPa·s
298.15 K, x1 = 0.699
  viscosity: 375 ± 47 mPa·s
298.15 K, x1 = 0.799
  viscosity: 403 ± 51 mPa·s
298.15 K, x1 = 0.902
  viscosity: 430 ± 55 mPa·s
298.15 K, x1 = 1
  viscosity: 404 ± 51 mPa·s
303.15 K, x1 = 0.1
  viscosity: 131 ± 16 mPa·s
303.15 K, x1 = 0.201
  viscosity: 159 ± 19 mPa·s
303.15 K, x1 = 0.3
  viscosity: 178 ± 22 mPa·s
303.15 K, x1 = 0.399
  viscosity: 224 ± 28 mPa·s
303.15 K, x1 = 0.5
  viscosity: 257 ± 32 mPa·s
303.15 K, x1 = 0.601
  viscosity: 264 ± 33 mPa·s
303.15 K, x1 = 0.699
  viscosity: 273 ± 34 mPa·s
303.15 K, x1 = 0.799
  viscosity: 294 ± 37 mPa·s
303.15 K, x1 = 0.902
  viscosity: 315 ± 40 mPa·s
303.15 K, x1 = 1
  viscosity: 297 ± 37 mPa·s
308.15 K, x1 = 0.1
  viscosity: 102 ± 12 mPa·s
308.15 K, x1 = 0.201
  viscosity: 122 ± 15 mPa·s
308.15 K, x1 = 0.3
  viscosity: 136 ± 17 mPa·s
308.15 K, x1 = 0.399
  viscosity: 169 ± 21 mPa·s
308.15 K, x1 = 0.5
  viscosity: 193 ± 24 mPa·s
308.15 K, x1 = 0.601
  viscosity: 197 ± 24 mPa·s
308.15 K, x1 = 0.699
  viscosity: 204 ± 25 mPa·s
308.15 K, x1 = 0.799
  viscosity: 219 ± 27 mPa·s
308.15 K, x1 = 0.902
  viscosity: 237 ± 29 mPa·s
308.15 K, x1 = 1
  viscosity: 223 ± 28 mPa·s
313.15 K, x1 = 0.1
  viscosity: 81 ± 10 mPa·s
313.15 K, x1 = 0.201
  viscosity: 96 ± 12 mPa·s
313.15 K, x1 = 0.3
  viscosity: 105 ± 13 mPa·s
313.15 K, x1 = 0.399
  viscosity: 130 ± 16 mPa·s
313.15 K, x1 = 0.5
  viscosity: 148 ± 18 mPa·s
313.15 K, x1 = 0.601
  viscosity: 151 ± 18 mPa·s
313.15 K, x1 = 0.699
  viscosity: 155 ± 19 mPa·s
313.15 K, x1 = 0.799
  viscosity: 167 ± 20 mPa·s
313.15 K, x1 = 0.902
  viscosity: 180 ± 22 mPa·s
313.15 K, x1 = 1
  viscosity: 170 ± 21 mPa·s
318.15 K, x1 = 0.201
  viscosity: 77 ± 9 mPa·s
318.15 K, x1 = 0.3
  viscosity: 83 ± 10 mPa·s
318.15 K, x1 = 0.399
  viscosity: 103 ± 13 mPa·s
318.15 K, x1 = 0.5
  viscosity: 116 ± 14 mPa·s
318.15 K, x1 = 0.601
  viscosity: 117 ± 14 mPa·s
318.15 K, x1 = 0.699
  viscosity: 120 ± 15 mPa·s
318.15 K, x1 = 0.799
  viscosity: 130 ± 16 mPa·s
318.15 K, x1 = 0.902
  viscosity: 141 ± 17 mPa·s
318.15 K, x1 = 1
  viscosity: 133 ± 16 mPa·s
323.15 K, x1 = 0.201
  viscosity: 63 ± 8 mPa·s
323.15 K, x1 = 0.3
  viscosity: 67 ± 8 mPa·s
323.15 K, x1 = 0.399
  viscosity: 82 ± 10 mPa·s
323.15 K, x1 = 0.5
  viscosity: 93 ± 11 mPa·s
323.15 K, x1 = 0.601
  viscosity: 94 ± 11 mPa·s
323.15 K, x1 = 0.699
  viscosity: 96 ± 12 mPa·s
323.15 K, x1 = 0.799
  viscosity: 103 ± 13 mPa·s
323.15 K, x1 = 0.902
  viscosity: 112 ± 14 mPa·s
323.15 K, x1 = 1
  viscosity: 106 ± 13 mPa·s
